According to ChEMBL document CHEMBL5584248, “Synthesis and biological characterization of an orally bioavailable lactate dehydrogenase-A inhibitor against pancreatic cancer” (Eur J Med Chem, 2024):
Calls of active or inactive are those of the source. No cut-off for these calls is given here.

What was measured:
[1] = molecular target: L-lactate dehydrogenase A chain (Homo sapiens, UniProt P00338); assay: Inhibition of human LDH-A incubated for 10 mins in presence of […] by fluorescence based reader assay
[2] = molecular target: L-lactate dehydrogenase B chain (Homo sapiens, UniProt P07195); assay: Inhibition of human LDH-B incubated for 10 mins in presence of […] by fluorescence based reader assay
MIA PaCa-2 [3] = assay: Reduction in total ATP production rate in human MIA PaCa-2 cells at 15 to 30 uM incubated for 24 hrs by Seahorse assay; format: functional, cell-based; settings: dose 15-30 µM
[4] = Metabolic stability in human liver microsomes assessed as half-life; format: ADME, Microsome
[5] = Antiproliferative activity against mouse FC-1199 cells incubated for 48 hrs by Hoechst 33342 and SYTOX green staining based confocal imaging analysis; format: functional, cell-based; settings: FC-1199, 48 h
[6] = Metabolic stability in human liver microsomes assessed as intrinsic clearance per mg protein; format: ADME, Microsome
[7] = tested on: Pancreatic cancer organoid; assay: Antiproliferative activity against human Pancreatic cancer organoid after 72 hrs by MTS assay; format: functional, tissue-based
[8] = AUC(0 to infinity) in CD1 mouse at 1 mg/kg, iv; format: ADME, organism-based; settings: in vivo
MIA PaCa-2 [9] = assay: Reduction in total ATP production in human MIA PaCa-2 cells at 10 uM incubated for 48 hrs by Celltiter-glo assay; format: functional, cell-based
[10] = Metabolic stability in human liver microsomes assessed as compound remaining after 60 mins; format: ADME, Microsome; settings: read-out: Stability
[11] = Metabolic stability in human liver microsomes assessed as compound remaining after 10 mins; format: ADME, Microsome; settings: read-out: Stability
[12] = Half-life in CD1 mouse at 1 mg/kg, iv; format: ADME, organism-based; settings: in vivo
MIA PaCa-2 [13] = assay: Inhibition of compensatory glycolysis in human MIA PaCa-2 cells at 10 to 30 uM; format: functional, cell-based; settings: dose 10-30 µM
MIA PaCa-2 [14] = assay: Reduction in lactate production in human MIA PaCa-2 cells incubated for 6 hrs by colorimetric assay; format: functional, cell-based; settings: dose 15-30 µM
[15] = Metabolic stability in mouse liver microsomes assessed as intrinsic clearance per mg protein; format: ADME, Microsome
PANC-1 = assay: Antiproliferative activity against human PANC-1 cells incubated for 48 hrs by Hoechst 33342 and SYTOX green staining based confocal imaging analysis; format: functional, cell-based; settings: PANC-1, 48 h
MIA PaCa-2 [16] = assay: Reduction in isocitric acid level in human MIA PaCa-2 cells at 15 uM incubated for 24 hrs by UPLC-MS analysis; format: functional, cell-based
MIA PaCa-2 [17] = assay: Reduction in intracellular lactate production in human MIA PaCa-2 cells at 15 uM incubated for 6 to 24 hrs by colorimetric assay; format: functional, cell-based; settings: time 6-24 hrs
[18] = Metabolic stability in human liver microsomes assessed as compound remaining after 30 mins; format: ADME, Microsome; settings: read-out: Stability
MIA PaCa-2 [19] = assay: Reduction in pyruvate level in human MIA PaCa-2 cells at 15 uM incubated for 6 to 24 hrs by UPLC-MS analysis; format: functional, cell-based; settings: time 6-24 hrs
[20] = Metabolic stability in mouse liver microsomes assessed as compound remaining after 20 mins; format: ADME, Microsome; settings: read-out: Stability
[21] = Oral bioavailability in CD1 mouse at 5 mg/kg; format: ADME, organism-based; settings: in vivo
[22] = Lipophilicity, logP of compound; format: physicochemical; settings: octanol/water
MIA PaCa-2 [23] = assay: Synergistic antiproliferative activity against human MIA PaCa-2 cells at 20 uM incubated for 48 hrs in presence of phenformin by fluorescence based confocal imaging analysis; format: functional, cell-based
MIA PaCa-2 [24] = assay: Reduction in citric acid level in human MIA PaCa-2 cells at 15 uM incubated for 24 hrs by UPLC-MS analysis; format: functional, cell-based
[25] = Metabolic stability in human liver microsomes assessed as compound remaining after 20 mins; format: ADME, Microsome; settings: read-out: Stability
MIA PaCa-2 [26] = assay: Reduction in succinic acid level in human MIA PaCa-2 cells at 15 uM incubated for 6 hrs by UPLC-MS analysis; format: functional, cell-based
MIA PaCa-2 [27] = assay: Antiproliferative activity against human MIA PaCa-2 cells incubated for 48 hrs by Hoechst 33342 and SYTOX green staining based confocal imaging analysis; format: functional, cell-based; settings: MIA PaCa-2, 48 h
MIA PaCa-2 [28] = assay: Reduction in glycolytic ATP production rate in human MIA PaCa-2 cells at 15 to 30 uM incubated for 24 hrs by Seahorse assay; format: functional, cell-based; settings: dose 15-30 µM
[29] = Cmax in CD1 mouse at 5 mg/kg, po; format: ADME, organism-based; settings: in vivo
MIA PaCa-2 [30] = assay: Inhibition of basal glycolysis in human MIA PaCa-2 cells at 10 to 30 uM; format: functional, cell-based; settings: dose 10-30 µM
MIA PaCa-2 [31] = assay: Reduction in total ATP production in human MIA PaCa-2 cells at 15 to 30 uM incubated for 48 hrs by Celltiter-glo assay; format: functional, cell-based; settings: dose 15-30 µM
[32] = Cmax in CD1 mouse at 1 mg/kg, iv; format: ADME, organism-based; settings: in vivo
[33] = Volume of distribution in CD1 mouse at 1 mg/kg, iv; format: ADME, organism-based; settings: in vivo
[34] = Tmax in CD1 mouse at 5 mg/kg, po; format: ADME, organism-based; settings: in vivo
[35] = Cytotoxicity against HPNEs incubated for 48 hrs by Hoechst 33342 and SYTOX green staining based confocal imaging analysis; format: toxicity, cell-based; settings: human, HPNE cells
[36] = Metabolic stability in mouse liver microsomes assessed as half-life; format: ADME, Microsome
[37] = Metabolic stability in mouse liver microsomes assessed as compound remaining after 10 mins; format: ADME, Microsome; settings: read-out: Stability
[38] = Clearance in CD1 mouse at 1 mg/kg, iv; format: ADME, organism-based; settings: in vivo
[39] = Half-life in CD1 mouse at 5 mg/kg, po; format: ADME, organism-based; settings: in vivo
[40] = Metabolic stability in mouse liver microsomes assessed as compound remaining after 30 mins; format: ADME, Microsome; settings: read-out: Stability
[41] = Metabolic stability in mouse liver microsomes assessed as compound remaining after 60 mins; format: ADME, Microsome; settings: read-out: Stability
[42] = Thermodynamic solubility in PBS at pH 7.4; format: physicochemical; settings: buffer
[43] = AUC(0 to infinity) in CD1 mouse at 5 mg/kg, po; format: ADME, organism-based; settings: in vivo
[44] = Drug metabolism in mouse assessed as Cmax of 4-((4-(1-methyl-1H-imidazole-2-carbonyl)phenyl)amino)-4-oxo-2-(4-(trifluoromethyl)phenyl)butanoic acid at 1 mg/kg, iv; format: ADME, organism-based; settings: in vivo
[45] = Drug metabolism in mouse assessed as half-life of 4-((4-(1-methyl-1H-imidazole-2-carbonyl)phenyl)amino)-4-oxo-2-(4-(trifluoromethyl)phenyl)butanoic acid at 1 mg/kg, iv; format: ADME, organism-based; settings: in vivo
[46] = Drug metabolism in mouse assessed as AUC(0 to infinity) of 4-((4-(1-methyl-1H-imidazole-2-carbonyl)phenyl)amino)-4-oxo-2-(4-(trifluoromethyl)phenyl)butanoic acid at 1 mg/kg, iv; format: ADME, organism-based; settings: in vivo
[47] = Drug metabolism in mouse assessed as Cmax of 4-((4-(1-methyl-1H-imidazole-2-carbonyl)phenyl)amino)-4-oxo-2-(4-(trifluoromethyl)phenyl)butanoic acid at 5 mg/kg, po; format: ADME, organism-based; settings: in vivo
[48] = Drug metabolism in mouse assessed as tmax of 4-((4-(1-methyl-1H-imidazole-2-carbonyl)phenyl)amino)-4-oxo-2-(4-(trifluoromethyl)phenyl)butanoic acid at 5 mg/kg, po; format: ADME, organism-based; settings: in vivo
[49] = Drug metabolism in mouse assessed as AUC(0 to infinity) of 4-((4-(1-methyl-1H-imidazole-2-carbonyl)phenyl)amino)-4-oxo-2-(4-(trifluoromethyl)phenyl)butanoic acid at 5 mg/kg, po; format: ADME, organism-based; settings: in vivo
[50] = Drug metabolism in mouse assessed as tmax of 4-((4-(1-methyl-1H-imidazole-2-carbonyl)phenyl)amino)-4-oxo-2-(4-(trifluoromethyl)phenyl)butanoic acid at 1 mg/kg, iv; format: ADME, organism-based; settings: in vivo
[51] = Drug metabolism in mouse assessed as half-life of 4-((4-(1-methyl-1H-imidazole-2-carbonyl)phenyl)amino)-4-oxo-2-(4-(trifluoromethyl)phenyl)butanoic acid at 5 mg/kg, po; format: ADME, organism-based; settings: in vivo
[52] = Drug metabolism in mouse assessed as metabolite 4-((4-(1-methyl-1H-imidazole-2-carbonyl)phenyl)amino)-4-oxo-2-(4-(trifluoromethyl)phenyl)butanoic acid cumulative half-life by LC-MS/MS analysis; format: ADME

Sequence of L-lactate dehydrogenase B chain (P07195 whole entry): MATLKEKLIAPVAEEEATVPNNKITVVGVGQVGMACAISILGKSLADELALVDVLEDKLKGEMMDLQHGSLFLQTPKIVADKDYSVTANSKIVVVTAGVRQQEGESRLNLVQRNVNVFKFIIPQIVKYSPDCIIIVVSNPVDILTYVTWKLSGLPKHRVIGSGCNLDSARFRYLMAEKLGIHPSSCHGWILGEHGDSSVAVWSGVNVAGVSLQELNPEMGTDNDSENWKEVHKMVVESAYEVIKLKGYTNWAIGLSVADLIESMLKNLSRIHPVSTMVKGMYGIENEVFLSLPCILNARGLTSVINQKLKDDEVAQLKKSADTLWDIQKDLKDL

With `COC(=O)C(CC(=O)Nc1ccc(C(=O)c2nccn2C)cc1)c1ccccc1` (stereo not drawn) the IC50 [1] was 2.49 µM.
`Cn1ccnc1C(=O)c1ccc(NC(=O)CC(C(=O)O)c2ccc(Cl)cc2)cc1` (stereo not drawn) gave an IC50 [1] of 0.19 µM.
In the case of `O=C(O)CC(NC(=O)Cc1ccc(C(F)(F)F)cc1)c1cccc(Cl)c1` (stereo not drawn), the IC50 [2] is reported as > 100 µM and the IC50 [1] is reported as > 100 µM.
In the case of `O=C(CC(C(=O)O)c1ccc(C(F)(F)F)cc1)Nc1ccc(-c2cccs2)cc1` (stereo not drawn), the IC50 [2] is reported as > 100 µM and the IC50 [1] is reported as > 100 µM.
In the case of `Cn1ccnc1C(=O)c1ccc(NC(=O)CC(C(=O)O)c2ccc(C(F)(F)F)cc2)cc1` (stereo not drawn), the Activity (MIA PaCa-2 [3]) is reported as “Active”, the t1/2 [4] is reported as > 1 h and the IC50 [5] is reported as 20.8 µM. For the same molecule, the CLint [6] was < 23 µL/min/mg, the IC50 [7] was 32.3 µM and the AUC(0-inf) [8] was 10 µM·h. The Activity (MIA PaCa-2 [9]) was “inactive”, the remaining at 1 h [10] was 75.6% and the remaining at 10 min [11] was 95.5%. For the same molecule, the half-life [12] was 2.9 h, the inhibition (MIA PaCa-2 [13]) was “Active” and the Activity (MIA PaCa-2 [14]) was “Dose-Dependent Effect”. The CLint [15] was < 23 µL/min/mg, the IC50 (PANC-1) was 43.3 µM and the Activity (MIA PaCa-2 [16]) was “Active”. For the same molecule, the Activity (MIA PaCa-2 [17]) was “Active”, the remaining at 0.5 h [18] was 90.5% and the Activity (MIA PaCa-2 [19]) was “Active”. For the same molecule, the remaining at 20 min [20] was 96%, the F [21] was 33% and the logP [22] was 2.47. For the same molecule, the Activity (MIA PaCa-2 [23]) was “Active”, the Activity (MIA PaCa-2 [24]) was “Active” and the remaining at 20 min [25] was 94.8%. For the same molecule, the Activity (MIA PaCa-2 [26]) was “Active”, the IC50 (MIA PaCa-2 [27]) was 14.1 µM and the Activity (MIA PaCa-2 [28]) was “Active”. The Cmax [29] was 10.4 µM, the inhibition (MIA PaCa-2 [30]) was “Active” and the Activity (MIA PaCa-2 [31]) was “Active”. The Cmax [32] was 21.2 µM, the Vd [33] was 0.9 L/kg and the Tmax [34] was 0.5 h. For the same molecule, the IC50 at 48 h [35] was > 50 µM, the t1/2 [36] was > 1 h and the remaining at 10 min [37] was 98.6%. It also gave a clearance ([38]; mouse, iv, 1 mg/kg) of 110 mL/min/kg, a half-life [39] of 2.4 h and a remaining at 0.5 h [40] of 98%. For the same molecule, the remaining at 1 h [41] was 88.4%, the Therm_solubility [42] was 7685 µg/mL and the AUC(0-inf) [43] was 36.4 µM·h.
For `O=C(CC(C(=O)O)c1ccc(C(F)(F)F)cc1)Nc1ccc(C(=O)c2ccccc2)cc1` (stereo not drawn), the IC50 [1] was 79.3 µM.
With `COC(=O)C(CC(=O)Nc1ccc(C(=O)c2ccccc2)cc1)c1ccc(C(F)(F)F)cc1` (stereo not drawn) the IC50 [1] was 15.7 µM.
Molecule `COC(=O)C(CC(=O)Nc1ccc(C(=O)c2nccn2C)cc1)c1ccc(C(F)(F)F)cc1` (stereo not drawn) has a Cmax [44] of 1.01 µM, a t1/2 [45] of 2.18 h and an AUC [46] of 4.04 µM·h. It also gave an IC50 [5] of 12.1 µM, an AUC(0-inf) [8] of 0.328 µM·h and a half-life [12] of 1.19 h. For the same molecule, the IC50 (PANC-1) was 23.9 µM, the Cmax [47] was 9.76 µM and the Tmax [48] was 0.5 h. It also gave an F [21] of 73%, an AUC [49] of 25.96 µM·h and an IC50 (MIA PaCa-2 [27]) of 25.6 µM. For the same molecule, the Cmax [29] was 0.48 µM, the Tmax [50] was 0.5 h and the Cmax [32] was 1.02 µM. It also gave a Vd [33] of 10 L/kg, a Tmax [34] of 0.25 h and a t1/2 [51] of 2.92 h. For the same molecule, the IC50 at 48 h [35] was 49.5 µM, the clearance ([38]; CD1, mouse) was 110 mL/min/kg and the half-life [39] was 1.63 h. For the same molecule, the t1/2 [52] was 4.5 h and the AUC(0-inf) [43] was 0.551 µM·h.
Molecule `Cn1ccnc1C(=O)c1ccc(NC(=O)CC(C(=O)O)c2csc(-c3ccccc3)n2)cc1` (stereo not drawn) has an IC50 [1] of 29.9 µM.
With `COC(=O)C(CC(=O)Nc1ccc(C(=O)c2nccn2C)cc1)c1ccc(Cl)cc1` (stereo not drawn) the IC50 [5] was 23.4 µM, the IC50 (PANC-1) was > 50 µM and the IC50 (MIA PaCa-2 [27]) was 24.2 µM. It also gave an IC50 at 48 h [35] of 26.5 µM.
